“And” between values parts separate entries of the source, which are not always exact repeats. Identical values can stand only once.

In the first experiment the target is full length human WEE1 kinase (Homo sapiens, UniProt P30291). As to the kind of experiment: ELISA based assay: WEE1 phosphorylation of biotinylated H2B peptide spanning Tyr37. Further details: A full length human WEE1 kinase that was enzymatically active was purified from insect cell; ELISA assay % Inhibition: concentration or dose not given beside the values. It is filed as biochemical. As to conditions: Table 1; several values in a cell are repeat determinations. The source says: Designing of a Novel inhibitor Screening Platform: […] A full length human WEE1 kinase that was enzymatically active was purified from insect cell. […] NCI diversity set compound library ( 1600 compounds) was used for the screening.
full length human WEE1 kinase, sequence (P30291 whole entry): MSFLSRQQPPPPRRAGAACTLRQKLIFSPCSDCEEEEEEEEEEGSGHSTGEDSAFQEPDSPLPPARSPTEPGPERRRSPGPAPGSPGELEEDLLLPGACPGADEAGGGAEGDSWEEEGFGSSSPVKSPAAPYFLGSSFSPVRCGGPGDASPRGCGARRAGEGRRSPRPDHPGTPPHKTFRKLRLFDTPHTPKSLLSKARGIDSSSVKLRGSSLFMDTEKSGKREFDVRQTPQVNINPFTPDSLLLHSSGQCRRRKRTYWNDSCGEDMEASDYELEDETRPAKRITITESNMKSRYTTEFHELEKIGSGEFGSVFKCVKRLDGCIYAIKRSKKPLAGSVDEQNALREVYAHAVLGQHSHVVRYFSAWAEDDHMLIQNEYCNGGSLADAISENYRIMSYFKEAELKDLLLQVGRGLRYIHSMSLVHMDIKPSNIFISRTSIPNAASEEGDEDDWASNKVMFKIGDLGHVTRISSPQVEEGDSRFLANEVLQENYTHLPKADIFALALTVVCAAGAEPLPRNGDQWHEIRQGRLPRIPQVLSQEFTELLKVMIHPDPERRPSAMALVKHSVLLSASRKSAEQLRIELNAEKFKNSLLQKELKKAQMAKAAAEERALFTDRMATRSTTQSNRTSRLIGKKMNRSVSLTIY
Regarding `CC(C)(C)OC(=O)Nc1ccc(NC(=O)c2cccc(C(=O)Nc3ccc(NC(=O)OC(C)(C)C)cc3)c2)cc1` [SG5-099], the “ELISA Inhibition (%)” value is reported as −14%.
On the same count and under the same terms, the same measure for `Nc1ccc(NC(=O)c2cccc(C(=O)Nc3ccc(N)cc3)c2)cc1` [SG5-103]: 12%; for `Cc1cc(C(=O)Nc2ccc(NC(=O)OC(C)(C)C)cc2)c(C)cc1C(=O)Nc1ccc(NC(=O)OC(C)(C)C)cc1` [SG5-106]: −23%.
On the same count and under the same terms, the same measure for `CC(C)(C)OC(=O)Nc1ccc(NC(=O)c2ccc(C(=O)Nc3ccc(NC(=O)OC(C)(C)C)cc3)o2)cc1` [SG5-107, Di-tert-butyl (((furan-2,5-dicarbonyl)bis(azanediyl))bis(4,1-phenylene))dicarbamate]: −8%; for `Cc1cc(C(=O)Nc2ccc(N)cc2)c(C)cc1C(=O)Nc1ccc(N)cc1` [SG5-110]: 14%.
Take `CC(C)(C)OC(=O)Nc1ccc(NC(=O)c2ccc(C(=O)Nc3ccc(NC(=O)OC(C)(C)C)cc3)nc2)cc1` [SG5-119, Di-tert-butyl (((pyridine-2,5-dicarbonyl)bis(azanediyl))bis(4,1-phenylene))dicarbamate]: the “ELISA Inhibition (%)” value was −17%.
On to `CC(C)(C)OC(=O)Nc1ccc(NC(=O)[C@H]2CC[C@H](C(=O)Nc3ccc(NC(=O)OC(C)(C)C)cc3)CC2)cc1` [SG5-121], for which the “ELISA Inhibition (%)” value is recorded as −7%.
Still for that read-out and setting: the same measure for `CC(C)(C)OC(=O)Nc1ccc(NC(=O)c2cccc(C(=O)Nc3ccc(NC(=O)OC(C)(C)C)cc3)n2)cc1` [SG5-123]: −39%.
As to `Nc1ccc(NC(=O)c2ccc(C(=O)Nc3ccc(N)cc3)nc2)cc1` [SG5-124, N^2,N^5-bis(4-aminophenyl)pyridine-2,5-dicarboxamide], the “ELISA Inhibition (%)” value was 73% and 103%.
For the compound `Nc1ccc(NC(=O)[C@H]2CC[C@H](C(=O)Nc3ccc(N)cc3)CC2)cc1` [SG5-126], the “ELISA Inhibition (%)” value is −39%.
Same read-out and setting: the same measure for `Nc1ccc(NC(=O)c2cccc(C(=O)Nc3ccc(N)cc3)n2)cc1` [SG5-128]: 2%; for `CC(C)(C)OC(=O)Nc1ccc(NC(=O)c2ccc(C(=O)Nc3ccc(NC(=O)OC(C)(C)C)c(F)c3)cc2)cc1F` [SG5-133-1]: −57%; for `CC(C)(C)OC(=O)Nc1ccc(NC(=O)c2ccc(C(=O)Nc3ccc(NC(=O)OC(C)(C)C)c(Cl)c3)cc2)cc1Cl` [SG5-133-2]: −38%.
Same read-out and setting: the same measure for `Nc1ccc(NC(=O)c2ccc(C(=O)Nc3ccc(N)c(F)c3)cc2)cc1F` [SG5-137-1]: −24%.
With `Cl.Nc1ccc(NC(=O)c2ccc(C(=O)Nc3ccc(N)c(Cl)c3)cc2)cc1Cl` [SG5-137-2], the “ELISA Inhibition (%)” value is given as −52%.
With `Cc1cc(C(=O)Nc2ccc(NC(=O)OC(C)(C)C)c(F)c2)c(C)cc1C(=O)Nc1ccc(NC(=O)OC(C)(C)C)c(F)c1` [SG5-140-1], the “ELISA Inhibition (%)” value is 25%.
Still for that read-out and setting: the same measure for `CC(C)(C)OC(=O)Nc1ccc(NC(=O)c2ccc(C(=O)Nc3ccc(NC(=O)OC(C)(C)C)c(F)c3)o2)cc1F` [SG5-140-2]: 25%; for `CC(C)(C)OC(=O)Nc1ccc(NC(=O)c2ccc(C(=O)Nc3ccc(NC(=O)OC(C)(C)C)c(F)c3)nc2)cc1F` [SG5-140-3, Di-tert-butyl (((pyridine-2,5-dicarbonyl)bis(azanediyl))bis(2-fluoro-4,1-phenylene))dicarbamate]: 22%; for `CC(C)(C)OC(=O)Nc1ccc(NC(=O)[C@H]2CC[C@H](C(=O)Nc3ccc(NC(=O)OC(C)(C)C)c(F)c3)CC2)cc1F` [SG5-140-4]: 20%.
Same read-out and setting: the same measure for `Cc1cc(C(=O)Nc2ccc(NC(=O)OC(C)(C)C)c(Cl)c2)c(C)cc1C(=O)Nc1ccc(NC(=O)OC(C)(C)C)c(Cl)c1` [SG5-140-5]: 24%; for `CC(C)(C)OC(=O)Nc1ccc(NC(=O)c2ccc(C(=O)Nc3ccc(NC(=O)OC(C)(C)C)c(Cl)c3)o2)cc1Cl` [SG5-140-6]: 17%.
Regarding `CC(C)(C)OC(=O)Nc1ccc(NC(=O)c2ccc(C(=O)Nc3ccc(NC(=O)OC(C)(C)C)c(Cl)c3)nc2)cc1Cl` [SG5-140-7], the “ELISA Inhibition (%)” value was 12%.
Consider `CC(C)(C)OC(=O)Nc1ccc(NC(=O)C2CCC(C(=O)Nc3ccc(NC(=O)OC(C)(C)C)c(Cl)c3)CC2)cc1Cl` (stereo not drawn) [SG5-140-8], for which the “ELISA Inhibition (%)” value worked out at 25%.
Still for that read-out and setting: the same measure for `Cc1cc(C(=O)Nc2ccc(CNC(=O)OC(C)(C)C)cc2)c(C)cc1C(=O)Nc1ccc(CNC(=O)OC(C)(C)C)cc1` [SG5-140-9]: 18%; for `CC(C)(C)OC(=O)NCc1ccc(NC(=O)c2ccc(C(=O)Nc3ccc(CNC(=O)OC(C)(C)C)cc3)o2)cc1` [SG5-140-10]: 13%.
As to `CC(C)(C)OC(=O)NCc1ccc(NC(=O)c2ccc(C(=O)Nc3ccc(CNC(=O)OC(C)(C)C)cc3)nc2)cc1` [SG5-140-11, Di-tert-butyl ((((pyridine-2,5-dicarbonyl)bis(azanediyl))bis(4,1-phenylene))bis(methylene))dicarbamate], the “ELISA Inhibition (%)” value is listed as −6%.
On to `CC(C)(C)OC(=O)NCc1ccc(NC(=O)C2CCC(C(=O)Nc3ccc(CNC(=O)OC(C)(C)C)cc3)CC2)cc1` (stereo not drawn) [SG5-140-12], for which the “ELISA Inhibition (%)” value turned out to be 4%.
Still for that read-out and setting: the same measure for `Cc1cc(C(=O)NCc2ccc(NC(=O)OC(C)(C)C)cc2)c(C)cc1C(=O)NCc1ccc(NC(=O)OC(C)(C)C)cc1` [SG5-140-13]: −4%; for `CC(C)(C)OC(=O)Nc1ccc(CNC(=O)c2ccc(C(=O)NCc3ccc(NC(=O)OC(C)(C)C)cc3)o2)cc1` [SG5-140-14]: −4%; for `CC(C)(C)OC(=O)Nc1ccc(CNC(=O)c2ccc(C(=O)NCc3ccc(NC(=O)OC(C)(C)C)cc3)nc2)cc1` [SG5-140-15]: 12%.
With `CC(C)(C)OC(=O)Nc1ccc(CNC(=O)C2CCC(C(=O)NCc3ccc(NC(=O)OC(C)(C)C)cc3)CC2)cc1` (stereo not drawn) [SG5-140-16], the “ELISA Inhibition (%)” value came out at 8%.
On the same count and under the same terms, the same measure for `Cc1cc(C(=O)NC2CCN(C(=O)OC(C)(C)C)CC2)c(C)cc1C(=O)NC1CCN(C(=O)OC(C)(C)C)CC1` [SG5-140-17]: 10%.
Still for that read-out and setting: the same measure for `CC(C)(C)OC(=O)N1CCC(NC(=O)c2ccc(C(=O)NC3CCN(C(=O)OC(C)(C)C)CC3)o2)CC1` [SG5-140-18]: −27%; for `CC(C)(C)OC(=O)N1CCC(NC(=O)c2ccc(C(=O)NC3CCN(C(=O)OC(C)(C)C)CC3)nc2)CC1` [SG5-140-19]: 28%; for `CC(C)(C)OC(=O)N1CCC(NC(=O)C2CCC(C(=O)NC3CCN(C(=O)OC(C)(C)C)CC3)CC2)CC1` (stereo not drawn) [SG5-140-20]: 28%.
`Cc1cc(C(=O)Nc2ccc(N)c(F)c2)c(C)cc1C(=O)Nc1ccc(N)c(F)c1.Cl` [SG5-147-1]: the “ELISA Inhibition (%)” value is listed as 41%.
For the compound `Cl.Nc1ccc(NC(=O)c2ccc(C(=O)Nc3ccc(N)c(F)c3)o2)cc1F` [SG5-147-2], the “ELISA Inhibition (%)” value came to 37%.

The experiment is the same for the next values; noted with them: Table 1; several values in a cell are repeat determinations; dihydrochloride.
Turning to `Cl.Nc1ccc(CNC(=O)c2ccc(C(=O)NCc3ccc(N)cc3)cc2)cc1` [SG5-137-3, N^1,N^4-bis(4-aminobenzyl)terephthalamide dihydrochloride], the “ELISA Inhibition (%)” value is 32% and 60%.

The experiment is the same for the next values; noted with them: Table 3; No peptide = 100, No inhibitor = 0.
In the case of `Nc1ccc(NC(=O)c2ccc(C(=O)Nc3ccc(N)cc3)nc2)cc1` [SG5-124, N^2,N^5-bis(4-aminophenyl)pyridine-2,5-dicarboxamide], the “ELISA assay % Inhibition” value is listed as 98%.

Source of the values: patent US11987568B2, “Allosteric inhibitor of WEE1 kinase” (H. LEE MOFFITT CANCER CENTER AND RESEARCH INSTITUTE, INC., priority 2018, dated 2024).
